# Laboratory results as given in patent US11179391B2, “Compound with kinase inhibitory activity and preparation method and use thereof” (priority 2017, dated 2021).
# Legend:
# CDK2/CycA2 = CDK2/CycA2 (Homo sapiens, UniProt P24941); assay: Determination of CDK activity (Caliper mobility shift, FAM-P8 peptide): CDK2; type: biochemical; details: CDK2/CycA2; read-out: CDK2 enzymatic inhibitory activity (IC50)
# [1] = tested on: Human breast cancer MCF-7 cells; assay: Pharmacodynamic study on mouse MCF-7 model (subcutaneous xenograft); type: in vivo, BALB/c nude mice; details: for Tumor volume (day 0) / antitumor effect compared with Abemaciclib (in words) / Tumor volume (day 14) / T/C relative tumor proliferation rate / TGI tumor growth inhibition rate: MCF-7 model; for Tumor volume (day 0): baseline at start of dosing; for Tumor volume (day 0) / Tumor volume (day 14) / T/C relative tumor proliferation rate / TGI tumor growth inhibition rate: mesylate, 30 mg/kg PO × 14 days; for antitumor effect compared with Abemaciclib (in words): same dosage (30 mg/kg PO × 14 days); for T/C relative tumor proliferation rate / TGI tumor growth inhibition rate: day 14; for inhibitory effect on the tumor growth (in words): MCF-7 nude mouse model, 30 mg/kg, continuous PO administration for 14 days
# [2] = Pharmacokinetic study in rats; type: in vivo, Sprague-Dawley rats; details: for F / Cmax / Tmax / clearance / half-life / AUC(0-t): male Sprague-Dawley rats; for F: iv 2 mg/kg and oral 5 mg/kg; for clearance in rat plasma (in words) / half-life in rat plasma (in words) / level of exposure at 24 h in rat plasma (in words): at the dose of 10 mg/kg; for Cmax / Tmax / clearance / half-life / AUC(0-t): rat, plasma, study dosed iv 2 mg/kg and oral 5 mg/kg, route of this parameter not given; for AUC(0-t): read-out: AUC0-24 h
# Description: Healthy adult Sprague-Dawley rats, male, 7-10 weeks old, weighing 240-270 g, provided by Beijing Vital River Laboratory Animal Technology Co., Ltd., with an animal certificate number of 1140070278736.
# Test compounds of the invention: example 17, 33, 40, and 57.
# Intravenous administration solvent system of compounds: 10% (V/V) NMP and 90% (20% (V/V)) SBE-β-CD in 16.667 mM PBS with a concentration of 1.0 mg/mL.
# Oral administration solvent system of compounds: pure water system containing 0.1% hydroxyethyl cellulose and 0.5% Tween-80, with a concentration of 1 mg/mL.
# Intravenous administration: 3 male Sprague-Dawley rats of each test compound were injected intravenously after fasting overnight, with a dose of 2 mg/kg, and the dosing volume was 2 mL/kg. […]
# Before the administration, and after administration of 0.0833 (iv), 0.25, 0.5, 1, 2, 4, 8, 12, and 24 h, the jugular vein puncture (approximately 0.15 mL per time point) of each animal was performed by collecting blood from polypropylene tubes. All blood samples were transferred to pre-cooled EDTA-K2 test tubes or pre-cooled plastic microcentrifuge tubes containing 3 μL of 0.5 M EDTA-K2 as anticoagulant and placed on wet ice until centrifugation. Each collected blood was centrifuged at 4° C. for 15 minutes, and plasma was collected. All plasma would be stored in a freezer at about −80° C. until LCMS/MS detection.
# CDK7/CyclinH/MAT1 = CDK7/CyclinH/MAT1 (Homo sapiens, UniProt P50613); assay: Determination of CDK activity (Caliper mobility shift, FAM-P8 peptide): CDK7; type: biochemical; details: CDK7/CyclinH/MAT1; read-out: CDK7 enzymatic inhibitory activity (IC50)
# Method in brief: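 His-CDK7/GST-MAT1/cyclin H preincubated with compound (10-point series) 10 min at room temperature, then reacted with FAM-P8 peptide plus ATP at 28 °C for a set time before stopping. Peptide conversion read by Caliper mobility shift; converted to % inhibition vs controls and IC50 fitted.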
# Sequence of CDK7/CyclinH/MAT1 (P50613 whole entry): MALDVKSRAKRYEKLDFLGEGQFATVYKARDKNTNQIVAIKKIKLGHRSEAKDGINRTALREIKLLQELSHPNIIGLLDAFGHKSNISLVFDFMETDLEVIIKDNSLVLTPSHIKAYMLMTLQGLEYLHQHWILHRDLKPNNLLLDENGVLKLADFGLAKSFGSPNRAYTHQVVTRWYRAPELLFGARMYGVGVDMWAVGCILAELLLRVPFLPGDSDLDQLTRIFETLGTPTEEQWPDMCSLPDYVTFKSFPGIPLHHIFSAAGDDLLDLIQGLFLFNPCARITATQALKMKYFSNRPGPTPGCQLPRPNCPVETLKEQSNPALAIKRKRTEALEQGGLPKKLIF
# Sequence of CDK7/CyclinH/MAT1 (P51946 whole entry partner): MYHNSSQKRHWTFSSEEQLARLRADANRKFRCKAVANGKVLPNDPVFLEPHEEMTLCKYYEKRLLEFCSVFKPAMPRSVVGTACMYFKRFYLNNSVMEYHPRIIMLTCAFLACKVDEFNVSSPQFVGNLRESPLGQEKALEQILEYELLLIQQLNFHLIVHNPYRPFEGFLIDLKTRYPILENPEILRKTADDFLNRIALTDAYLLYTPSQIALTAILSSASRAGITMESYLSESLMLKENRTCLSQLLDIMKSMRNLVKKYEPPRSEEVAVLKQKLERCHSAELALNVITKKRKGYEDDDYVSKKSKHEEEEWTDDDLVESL
# Sequence of CDK7/CyclinH/MAT1 (P51948 whole entry partner): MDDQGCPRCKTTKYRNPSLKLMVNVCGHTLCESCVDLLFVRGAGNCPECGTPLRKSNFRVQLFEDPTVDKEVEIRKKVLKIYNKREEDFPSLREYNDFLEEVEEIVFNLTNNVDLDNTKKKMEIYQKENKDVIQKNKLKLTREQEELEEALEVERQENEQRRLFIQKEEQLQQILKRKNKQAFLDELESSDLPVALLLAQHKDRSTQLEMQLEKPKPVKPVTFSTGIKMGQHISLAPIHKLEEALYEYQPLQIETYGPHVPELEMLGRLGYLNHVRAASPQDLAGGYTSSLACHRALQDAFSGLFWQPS
SMILES,IC50 (CDK2/CycA2),Tumor volume (day 0) [1],antitumor effect compared with Abemaciclib (in words) [1],Tumor volume (day 14) [1],T/C relative tumor proliferation rate [1],TGI tumor growth inhibition rate [1],inhibitory effect on the tumor growth (in words) [1],F [2],clearance in rat plasma (in words) [2],half-life in rat plasma (in words) [2],level of exposure at 24 h in rat plasma (in words) [2],Cmax [2],Tmax [2],clearance [2],half-life [2],AUC(0-t) [2],IC50 (CDK7/CyclinH/MAT1)
"CCN1CCC(=Cc2ccc(Nc3ncc(F)c(-c4cc(F)c5nc(C)n(C(C)C)c5c4)n3)nc2)CC1 [Example 57, N-(5-((1-ethylpiperidin-4-ylidene)methyl)pyridin-2-yl)-5-fluoro-4-(4-fluoro-1-isopropyl-2-methyl-1H-benzo[d]imidazol-6-yl)pyrimidin-2-amine]",< 100 nM,209 mm^3,better antitumor effects than positive control compound Abemaciclib,290 mm^3,12.5%,87.5%,strong inhibitory effect,57.6%,lower clearance,longer half-life,high level of exposure,205 ng/mL,8 h,14.8 mL/min/kg,702 min,3080 ng·h/mL,1 to 10 µM
"CCN1CCC(C(C)c2ccc(Nc3ncc(F)c(-c4cc(F)c5nc(C)n(C(C)C)c5c4)n3)nc2)CC1 (single isomer, unassigned) [Example 17, (R or S)—N-(5-(1-(1-ethylpiperidin-4-yl)ethyl)pyridin-2-yl)-5-fluoro-4-(4-fluoro-1-isopropyl-2-methyl-1H-benzo[d]imidazol-6-yl) pyrimidin-2-amine]",< 100 nM,210 mm^3,better antitumor effects than positive control compound Abemaciclib,216 mm^3,0.9%,99.1%,strong inhibitory effect,66.9%,lower clearance,longer half-life,high level of exposure,225 ng/mL,8 h,14.1 mL/min/kg,563 min,3580 ng·h/mL,1 to 10 µM
